According to the NIST ThermoML archive (doi:10.1016/j.jct.2015.04.024):
± gives the expanded uncertainty stated by the source.

Assay: mn = molality of the nth substance listed, in mol/kg
Settings: 75 kPa, Liquid, Buoyancy - hydrostatic balance with magnetic suspension - one sinker

With `NCC(=O)O` [2-aminoacetic acid] + O as the molecule, how does the mass density (275.63 K, m1 = 0.02975) read?
The mass density was 1000.98 ± 0.16 kg/m3.

What about the mass density (275.63 K, m1 = 0.03917) of the same molecule?
The mass density was 1001.3 ± 0.16 kg/m3.

And the mass density (275.63 K, m1 = 0.05033)?
Its mass density is 1001.69 ± 0.16 kg/m3.

And the mass density (275.63 K, m1 = 0.0596)?
The mass density was 1002 ± 0.16 kg/m3.

And the mass density (275.63 K, m1 = 0.07025)?
The mass density was 1002.37 ± 0.16 kg/m3.

And the mass density (275.63 K, m1 = 0.07948)?
The mass density was 1002.68 ± 0.17 kg/m3.

And the mass density (275.63 K, m1 = 0.089)?
The mass density was 1003.01 ± 0.17 kg/m3.

And the mass density (275.63 K, m1 = 0.09846)?
Its mass density is 1003.34 ± 0.17 kg/m3.

And the mass density (276.13 K, m1 = 0.03055)?
Its mass density is 1001.01 ± 0.16 kg/m3.

What about the mass density (276.13 K, m1 = 0.04004) of the same molecule?
Its mass density is 1001.34 ± 0.16 kg/m3.

What about the mass density (276.13 K, m1 = 0.05063) of the same molecule?
The mass density was 1001.71 ± 0.16 kg/m3.

And the mass density (276.13 K, m1 = 0.05984)?
Its mass density is 1002.02 ± 0.16 kg/m3.

And the mass density (276.13 K, m1 = 0.06886)?
The mass density was 1002.32 ± 0.16 kg/m3.

What about the mass density (276.13 K, m1 = 0.08159) of the same molecule?
The mass density was 1002.76 ± 0.17 kg/m3.

And the mass density (276.13 K, m1 = 0.08976)?
The mass density was 1003.05 ± 0.17 kg/m3.

And the mass density (276.13 K, m1 = 0.1001)?
Its mass density is 1003.39 ± 0.17 kg/m3.

What about the mass density (276.69 K, m1 = 0.02962) of the same molecule?
The mass density was 1000.98 ± 0.16 kg/m3.

And the mass density (276.69 K, m1 = 0.03964)?
Its mass density is 1001.32 ± 0.16 kg/m3.

And the mass density (276.69 K, m1 = 0.04889)?
Its mass density is 1001.63 ± 0.16 kg/m3.

What about the mass density (276.69 K, m1 = 0.06028) of the same molecule?
Its mass density is 1002.02 ± 0.16 kg/m3.

And the mass density (276.69 K, m1 = 0.06972)?
The mass density was 1002.34 ± 0.16 kg/m3.

What about the mass density (276.69 K, m1 = 0.07961) of the same molecule?
The mass density was 1002.68 ± 0.17 kg/m3.

What about the mass density (276.69 K, m1 = 0.0885) of the same molecule?
Its mass density is 1002.98 ± 0.17 kg/m3.

What about the mass density (276.69 K, m1 = 0.1008) of the same molecule?
Its mass density is 1003.39 ± 0.17 kg/m3.

What about the mass density (277.12 K, m1 = 0.02962) of the same molecule?
The mass density was 1000.96 ± 0.16 kg/m3.

What about the mass density (277.12 K, m1 = 0.03964) of the same molecule?
Its mass density is 1001.31 ± 0.16 kg/m3.

And the mass density (277.12 K, m1 = 0.04889)?
The mass density was 1001.62 ± 0.16 kg/m3.

And the mass density (277.12 K, m1 = 0.06028)?
Its mass density is 1002.01 ± 0.16 kg/m3.

What about the mass density (277.12 K, m1 = 0.06972) of the same molecule?
Its mass density is 1002.32 ± 0.16 kg/m3.

And the mass density (277.12 K, m1 = 0.07961)?
Its mass density is 1002.66 ± 0.17 kg/m3.

What about the mass density (277.12 K, m1 = 0.0885) of the same molecule?
Its mass density is 1002.97 ± 0.17 kg/m3.

And the mass density (277.12 K, m1 = 0.1008)?
The mass density was 1003.38 ± 0.17 kg/m3.

And the mass density (277.67 K, m1 = 0.02975)?
The mass density was 1000.98 ± 0.16 kg/m3.

What about the mass density (277.67 K, m1 = 0.03917) of the same molecule?
The mass density was 1001.3 ± 0.16 kg/m3.

And the mass density (277.67 K, m1 = 0.05033)?
Its mass density is 1001.68 ± 0.16 kg/m3.

What about the mass density (277.67 K, m1 = 0.0596) of the same molecule?
Its mass density is 1002 ± 0.16 kg/m3.

And the mass density (277.67 K, m1 = 0.07025)?
Its mass density is 1002.36 ± 0.16 kg/m3.

And the mass density (277.67 K, m1 = 0.07948)?
The mass density was 1002.67 ± 0.17 kg/m3.

What about the mass density (277.67 K, m1 = 0.085) of the same molecule?
Its mass density is 1002.85 ± 0.17 kg/m3.

And the mass density (277.67 K, m1 = 0.09846)?
The mass density was 1003.32 ± 0.17 kg/m3.

What about the mass density (278.12 K, m1 = 0.02966) of the same molecule?
The mass density was 1000.97 ± 0.16 kg/m3.

What about the mass density (278.12 K, m1 = 0.04207) of the same molecule?
Its mass density is 1001.38 ± 0.16 kg/m3.

And the mass density (278.12 K, m1 = 0.05006)?
The mass density was 1001.65 ± 0.16 kg/m3.

What about the mass density (278.12 K, m1 = 0.06152) of the same molecule?
Its mass density is 1002.04 ± 0.16 kg/m3.

And the mass density (278.12 K, m1 = 0.06869)?
Its mass density is 1002.28 ± 0.16 kg/m3.

What about the mass density (278.12 K, m1 = 0.0814) of the same molecule?
The mass density was 1002.71 ± 0.17 kg/m3.

What about the mass density (278.12 K, m1 = 0.08635) of the same molecule?
Its mass density is 1002.88 ± 0.17 kg/m3.

And the mass density (278.12 K, m1 = 0.09984)?
The mass density was 1003.33 ± 0.17 kg/m3.

And the mass density (278.65 K, m1 = 0.02951)?
The mass density was 1000.95 ± 0.16 kg/m3.

And the mass density (278.65 K, m1 = 0.04154)?
The mass density was 1001.35 ± 0.16 kg/m3.

And the mass density (278.65 K, m1 = 0.04986)?
The mass density was 1001.64 ± 0.16 kg/m3.

And the mass density (278.65 K, m1 = 0.05429)?
Its mass density is 1001.78 ± 0.16 kg/m3.

What about the mass density (278.65 K, m1 = 0.07168) of the same molecule?
The mass density was 1002.36 ± 0.16 kg/m3.

And the mass density (278.65 K, m1 = 0.08119)?
The mass density was 1002.67 ± 0.17 kg/m3.

And the mass density (278.65 K, m1 = 0.0895)?
Its mass density is 1002.96 ± 0.17 kg/m3.

And the mass density (278.65 K, m1 = 0.09674)?
Its mass density is 1003.2 ± 0.17 kg/m3.
